SMILES strings stand for the structures.

For assay [1], the system named is EGFR Del19/T790M/C797S (H1975-clone #28). Kind of assay: EGFR degradation HTRF assay, H1975-clone #28 DTC cells. The class given is cell-based. The settings on record: H1975 # 28 DTC cells; for DC50: EGFR degradation, IC50 (DC50) from curve fit, read-out: DC50(nM) H1975 # 28 DTC; for Dmax (%) H1975 # 28 DTC: maximum percentage of inhibition (degradation). In a few lines:
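Read-out is an HTRF EGFR signal (337 nm excitation, 665/620 nm) from lysates of mutant-EGFR H1975 clones in which only the exogenous EGFR survives knockout. Treatment ran 16h at 37° C. from 10 uM final downward in 5-fold steps. DC50 comes from a logistic fit and Dmax is the maximal degradation.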

Assay [2] concerns the target T1, EGFR L858R/T790M/C797S (BaF3-LTC cells) (Homo sapiens, UniProt P00533, C797S/L858R/T790M).
T1 construct: expressed in transfected cells; host or cells: BaF3
Kind of assay: EGFR degradation HTRF assay, BaF3-LTC cells. Conditions: BaF3-LTC cells; for DC50: EGFR degradation, IC50 (DC50) from curve fit, read-out: DC50(nM) BaF3-LTC; for Dmax: maximum percentage of inhibition (degradation), read-out: Dmax (%) BaF3-LTC. The assay is classed as cell-based. In a few lines: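 Cells treated 16 h at 37 °C, 5% CO2 in medium with 0.2% DMSO; top final concentration 10 uM, 5-fold dilution, 8 doses. Lysates read by HTRF (665/620 nm); degradation % versus DMSO high control, DC50 from four-parameter fit, Dmax as maximal degradation.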
On the technique in general: Time-resolved FRET reads energy transfer from a long-lived donor to a nearby acceptor.

T1 sequence (P00533 25-1210 T790M/C797S/L858R): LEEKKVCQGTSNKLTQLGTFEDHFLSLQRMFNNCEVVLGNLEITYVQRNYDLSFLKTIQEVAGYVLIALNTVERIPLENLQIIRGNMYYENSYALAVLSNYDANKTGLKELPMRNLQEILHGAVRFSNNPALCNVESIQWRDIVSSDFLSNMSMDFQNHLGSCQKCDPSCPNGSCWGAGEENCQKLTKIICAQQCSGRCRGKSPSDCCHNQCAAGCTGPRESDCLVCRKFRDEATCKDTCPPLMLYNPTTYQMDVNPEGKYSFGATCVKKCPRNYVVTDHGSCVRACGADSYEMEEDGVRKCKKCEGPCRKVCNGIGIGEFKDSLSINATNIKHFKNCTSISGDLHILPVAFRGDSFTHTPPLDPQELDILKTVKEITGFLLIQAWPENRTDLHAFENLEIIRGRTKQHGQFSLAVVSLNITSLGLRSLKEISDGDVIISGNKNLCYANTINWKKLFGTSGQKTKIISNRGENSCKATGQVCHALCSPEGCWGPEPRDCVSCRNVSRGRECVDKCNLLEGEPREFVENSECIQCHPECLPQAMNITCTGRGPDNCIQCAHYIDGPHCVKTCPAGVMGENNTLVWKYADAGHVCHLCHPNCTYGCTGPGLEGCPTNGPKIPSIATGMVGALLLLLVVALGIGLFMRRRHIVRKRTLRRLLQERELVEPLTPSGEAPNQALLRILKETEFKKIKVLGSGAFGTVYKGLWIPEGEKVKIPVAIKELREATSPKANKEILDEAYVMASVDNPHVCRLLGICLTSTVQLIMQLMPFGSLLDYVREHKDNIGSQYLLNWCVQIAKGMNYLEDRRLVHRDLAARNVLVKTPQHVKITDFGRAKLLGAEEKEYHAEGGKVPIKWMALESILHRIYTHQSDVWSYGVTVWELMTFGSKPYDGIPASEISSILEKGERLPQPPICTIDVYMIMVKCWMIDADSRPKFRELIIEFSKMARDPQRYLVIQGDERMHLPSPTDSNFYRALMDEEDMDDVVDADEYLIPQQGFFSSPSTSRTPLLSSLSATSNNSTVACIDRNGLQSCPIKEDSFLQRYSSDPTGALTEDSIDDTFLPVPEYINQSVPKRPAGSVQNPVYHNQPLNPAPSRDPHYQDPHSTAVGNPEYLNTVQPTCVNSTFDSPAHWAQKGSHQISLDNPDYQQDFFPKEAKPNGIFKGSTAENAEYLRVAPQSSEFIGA

Take `CCc1ccc2c(P(C)(C)=O)c(Nc3nc(Nc4cc(CC)c(N5CCC(N6CCN(C(=O)[C@@H]7CCN(c8cc(F)c([C@H]9CCC(=O)NC9=O)c(F)c8)C7)CC6)CC5)cc4OC4CC4)ncc3Br)ccc2n1` [Example 655, (R)-3-(4-((R)-3-(4-(1-(4-((5-bromo-4-((5-(dimethylphosphoryl)-2-ethylquinolin-6-yl)amino)pyrimidin-2-yl)amino)-5-cyclopropoxy-2-ethylphenyl)piperidin-4-yl)piperazine-1-carbonyl)pyrrolidin-1-yl)-2,6-difluorophenyl)piperidine-2,6-dione]: in assay [1], the DC50 (commonly the concentration at which degradation of the target reaches its halfway point) was determined as 4.21 nM and the “Dmax (%) H1975 # 28 DTC” value stood at 81.86%. Moreover, in assay [2], the DC50 was found to be 16.4 nM and the Dmax (commonly the greatest extent of degradation seen) stood at 90.2%.

In the case of `CCc1cc(Nc2ncc(Br)c(Nc3ccc4ccnnc4c3P(C)(C)=O)n2)c(OC)cc1N1CCC(N2CCN(C(=O)[C@@H]3CCN(c4cc(F)c([C@H]5CCC(=O)NC5=O)c(F)c4)C3)CC2)CC1` [Example 656, (R)-3-(4-((R)-3-(4-(1-(4-((5-bromo-4-((8-(dimethylphosphoryl)cinnolin-7-yl)amino)pyrimidin-2-yl)amino)-2-ethyl-5-methoxyphenyl)piperidin-4-yl)piperazine-1-carbonyl)pyrrolidin-1-yl)-2,6-difluorophenyl)piperidine-2,6-dione], in assay [1], the DC50 amounted to 1.66 nM and the “Dmax (%) H1975 # 28 DTC” value is recorded as 83.91%. In addition, in assay [2], the DC50 amounted to 5.22 nM and the Dmax worked out at 83.6%.

Consider `CCOc1cc(N2CCC(N3CCN(CCc4cc(F)c([C@H]5CCC(=O)NC5=O)c(F)c4)[C@H](CO)C3)CC2)c(CC)cc1Nc1ncc(Br)c(Nc2ccc3nc(CC)ccc3c2P(C)(C)=O)n1` [Example 657, (R)-3-(4-(2-((S)-4-(1-(4-((5-bromo-4-((5-(dimethylphosphoryl)-2-ethylquinolin-6-yl)amino)pyrimidin-2-yl)amino)-5-ethoxy-2-ethylphenyl)piperidin-4-yl)-2-(hydroxymethyl)piperazin-1-yl)ethyl)-2,6-difluorophenyl)piperidine-2,6-dione], for which, in assay [1], the DC50 was 0.981 nM and the “Dmax (%) H1975 # 28 DTC” value is recorded as 86.35%. For the same molecule, in assay [2], the DC50 was 3.3 nM and the Dmax was 87.7%.

On to `CCc1ccc2c(P(C)(C)=O)c(Nc3nc(Nc4cc(CC)c(N5CCC(N6CCN(C(=O)Cc7c(C)ccc8c7C(C)(C)C(=O)N8C7CCC(=O)NC7=O)CC6)CC5)cc4OC)ncc3Br)ccc2n1` (stereo not drawn) [Example 658, 3-(4-(2-(4-(1-(4-((5-bromo-4-((5-(dimethylphosphoryl)-2-ethylquinolin-6-yl)amino)pyrimidin-2-yl)amino)-2-ethyl-5-methoxyphenyl)piperidin-4-yl)piperazin-1-yl)-2-oxoethyl)-3,3,5-trimethyl-2-oxoindolin-1-yl)piperidine-2,6-dione], for which, in assay [1], the DC50 was determined as 0.59 nM and the “Dmax (%) H1975 # 28 DTC” value is given as 71.03 7%. In assay [2], the DC50 came out at 4.46 nM and the Dmax amounted to 84.2%.

On to `CCOc1cc(N2CCC(N3CCN(CCc4cc(F)c5c(c4)C4(CC4)C(=O)N5C4CCC(=O)NC4=O)CC3)CC2)c(CC)cc1Nc1ncc(Br)c(Nc2ccc3nc(CC)ccc3c2P(C)(C)=O)n1` (stereo not drawn) [Example 659, 3-(5′-(2-(4-(1-(4-((5-bromo-4-((5-(dimethylphosphoryl)-2-ethylquinolin-6-yl)amino)pyrimidin-2-yl)amino)-5-ethoxy-2-ethylphenyl)piperidin-4-yl)piperazin-1-yl)ethyl)-7′-fluoro-2′-oxospiro[cyclopropane-1,3′-indolin]-1′-yl)piperidine-2,6-dione], for which, in assay [1], the DC50 was determined as 2.8 nM and the “Dmax (%) H1975 # 28 DTC” value came to 77.5%. Also, in assay [2], the DC50 stood at 17.8 nM and the Dmax was determined as 73.3%.

With `CCc1cc(Nc2ncc(Br)c(Nc3ccc4nc(C)sc4c3P(C)(C)=O)n2)c(OC)cc1N1CCC(N2CCN(CCc3cc(F)c([C@H]4CCC(=O)NC4=O)c(F)c3)CC2)CC1` [Example 661, (R)-3-(4-(2-(4-(1-(4-((5-bromo-4-((7-(dimethylphosphoryl)-2-methylbenzo[d]thiazol-6-yl)amino)pyrimidin-2-yl)amino)-2-ethyl-5-methoxyphenyl)piperidin-4-yl)piperazin-1-yl)ethyl)-2,6-difluorophenyl)piperidine-2,6-dione], in assay [1], the DC50 came out at 0.609 nM and the “Dmax (%) H1975 # 28 DTC” value amounted to 87.94%. Further, in assay [2], the DC50 worked out at 8.68 nM and the Dmax turned out to be 85.8%.

For `CCc1cc(Nc2ncc(Br)c(Nc3ccc4nc(C)ccc4c3P(C)(C)=O)n2)c(OC)cc1N1CCC(N2CCN(C(=O)[C@@H]3CN(c4cc(F)c([C@H]5CCC(=O)NC5=O)c(F)c4)CC3(C)C)CC2)CC1` [Example 662, (R)-3-(4-((S)-4-(4-(1-(4-((5-bromo-4-((5-(dimethylphosphoryl)-2-methylquinolin-6-yl)amino)pyrimidin-2-yl)amino)-2-ethyl-5-methoxyphenyl)piperidin-4-yl)piperazine-1-carbonyl)-3,3-dimethylpyrrolidin-1-yl)-2,6-difluorophenyl)piperidine-2,6-dione], in assay [1], the DC50 worked out at 2.23 nM and the “Dmax (%) H1975 # 28 DTC” value is on record as 89.14%. In addition, in assay [2], the DC50 was 5.4 nM and the Dmax is 97%.

As for `CCc1ccc2c(P(C)(C)=O)c(Nc3nc(Nc4cc(CC)c(N5CCC(N6CCN(C(=O)C78CCC(Nc9cc(F)c([C@H]%10CCC(=O)NC%10=O)c(F)c9)(CC7)C8)CC6)CC5)cc4OC)ncc3Br)ccc2n1` [Example 663, (R)-3-(4-((4-(4-(1-(4-((5-bromo-4-((5-(dimethylphosphoryl)-2-ethylquinolin-6-yl)amino)pyrimidin-2-yl)amino)-2-ethyl-5-methoxyphenyl)piperidin-4-yl)piperazine-1-carbonyl)bicyclo[2.2.1]heptan-1-yl)amino)-2,6-difluorophenyl)piperidine-2,6-dione], in assay [1], the DC50 was 1.81 nM and the “Dmax (%) H1975 # 28 DTC” value is given as 74.11%. In assay [2], the DC50 was 3.98 nM and the Dmax worked out at 95.8%.

On to `CCc1ccc2c(P(C)(C)=O)c(Nc3nc(Nc4cc(CC)c(N5CCC(N6CCN(C(=O)CN7CCN(c8cc(F)c([C@H]9CCC(=O)NC9=O)c(F)c8)CC7)CC6)CC5)cc4OC)ncc3Br)ccc2n1` [Example 665, (R)-3-(4-(4-(2-(4-(1-(4-((5-bromo-4-((5-(dimethylphosphoryl)-2-ethylquinolin-6-yl)amino)pyrimidin-2-yl)amino)-2-ethyl-5-methoxyphenyl)piperidin-4-yl)piperazin-1-yl)-2-oxoethyl)piperazin-1-yl)-2,6-difluorophenyl)piperidine-2,6-dione], for which, in assay [1], the DC50 was found to be 0.543 nM and the “Dmax (%) H1975 # 28 DTC” value was found to be 85.47%. Further, in assay [2], the DC50 came to 1.49 nM and the Dmax came to 97.9%.

In the case of `CCc1cc(Nc2ncc(Br)c(Nc3ccc4nc(C)sc4c3P(C)(C)=O)n2)c(OC)cc1N1CCC(N2CCN(CCc3cc(F)c(C4CCC(=O)NC4=O)c(F)c3)CC2)CC1` (stereo not drawn) [Example 666, 3-(4-(2-(4-(1-(4-((5-bromo-4-((7-(dimethylphosphoryl)-2-methylbenzo[d]thiazol-6-yl)amino)pyrimidin-2-yl)amino)-2-ethyl-5-methoxyphenyl)piperidin-4-yl)piperazin-1-yl)ethyl)-2,6-difluorophenyl)piperidine-2,6-dione], in assay [1], the DC50 turned out to be 2.4 nM and the “Dmax (%) H1975 # 28 DTC” value turned out to be 86.11%. Further, in assay [2], the DC50 was 11.1 nM and the Dmax amounted to 93.2%.

On to `COc1cc(N2CCC3(CCN(C(=O)[C@@H]4CCN(c5cc(F)c([C@H]6CCC(=O)NC6=O)c(F)c5)C4)CC3)CC2)c(C)cc1Nc1ncc(Br)c(Nc2ccc3nccnc3c2P(C)(C)=O)n1` [Example 667, (R)-3-(4-((R)-3-(9-(4-((5-bromo-4-((5-(dimethylphosphoryl)quinoxalin-6-yl)amino)pyrimidin-2-yl)amino)-5-methoxy-2-methylphenyl)-3,9-diazaspiro[5.5]undecane-3-carbonyl)pyrrolidin-1-yl)-2,6-difluorophenyl)piperidine-2,6-dione], for which, in assay [1], the DC50 worked out at 3.69 nM and the “Dmax (%) H1975 # 28 DTC” value is listed as 77.43%. In assay [2], the DC50 is 13.3 nM and the Dmax was found to be 84%.

For the molecule `CCc1cc(Nc2ncc(Br)c(Nc3ccc4ncncc4c3P(C)(C)=O)n2)c(OC)cc1N1CCC(N2CCN(C(=O)[C@@H]3CCN(c4cc(F)c([C@H]5CCC(=O)NC5=O)c(F)c4)C3)CC2)CC1` [Example 668, (R)-3-(4-((R)-3-(4-(1-(4-((5-bromo-4-((5-(dimethylphosphoryl)quinazolin-6-yl)amino)pyrimidin-2-yl)amino)-2-ethyl-5-methoxyphenyl)piperidin-4-yl)piperazine-1-carbonyl)pyrrolidin-1-yl)-2,6-difluorophenyl)piperidine-2,6-dione], in assay [1], the DC50 stood at 0.579 nM and the “Dmax (%) H1975 # 28 DTC” value is listed as 86.5%. Moreover, in assay [2], the DC50 is 2.32 nM and the Dmax is 91.5%.

The values are drawn from patent US20230265116A1, “DEGRADATION OF (EGFR) BY CONJUGATION OF EGFR INHIBITORS WITH E3 LIGASE LIGAND AND METHODS OF USE” (BEIGENE, LTD., priority 2020, published 2023).
